The text below walks through data of patent publication EP2687213B1, “Solid forms comprising (+)-2-[1-(3-ethoxy-4-methoxyphenyl)-2-methylsulfonylethyl]-4-acetylaminoisoindoline-1,3-dione, compositions thereof, and uses thereof” (CELGENE CORPORATION, priority 2008, dated 2009).

Series [1] relates to patients with severe plaque-type psoriasis.
Another series deals with human PDE2 (Homo sapiens, UniProt O00408). The experiment in a line: PDE2 enzyme assay. It is filed as biochemical. The following applies: from PDE inhibition data of Table 1.
For series [2], the target named is T1, PDE6 from bovine retinal rod outer segments (Bos taurus, UniProt P11541+P23439).
T1 construct: PDE6 from bovine retinal rod outer segments; from tissue; host or cells: bovine retinal rod outer segments
T1 sequence (P11541 2-856 limits assumed): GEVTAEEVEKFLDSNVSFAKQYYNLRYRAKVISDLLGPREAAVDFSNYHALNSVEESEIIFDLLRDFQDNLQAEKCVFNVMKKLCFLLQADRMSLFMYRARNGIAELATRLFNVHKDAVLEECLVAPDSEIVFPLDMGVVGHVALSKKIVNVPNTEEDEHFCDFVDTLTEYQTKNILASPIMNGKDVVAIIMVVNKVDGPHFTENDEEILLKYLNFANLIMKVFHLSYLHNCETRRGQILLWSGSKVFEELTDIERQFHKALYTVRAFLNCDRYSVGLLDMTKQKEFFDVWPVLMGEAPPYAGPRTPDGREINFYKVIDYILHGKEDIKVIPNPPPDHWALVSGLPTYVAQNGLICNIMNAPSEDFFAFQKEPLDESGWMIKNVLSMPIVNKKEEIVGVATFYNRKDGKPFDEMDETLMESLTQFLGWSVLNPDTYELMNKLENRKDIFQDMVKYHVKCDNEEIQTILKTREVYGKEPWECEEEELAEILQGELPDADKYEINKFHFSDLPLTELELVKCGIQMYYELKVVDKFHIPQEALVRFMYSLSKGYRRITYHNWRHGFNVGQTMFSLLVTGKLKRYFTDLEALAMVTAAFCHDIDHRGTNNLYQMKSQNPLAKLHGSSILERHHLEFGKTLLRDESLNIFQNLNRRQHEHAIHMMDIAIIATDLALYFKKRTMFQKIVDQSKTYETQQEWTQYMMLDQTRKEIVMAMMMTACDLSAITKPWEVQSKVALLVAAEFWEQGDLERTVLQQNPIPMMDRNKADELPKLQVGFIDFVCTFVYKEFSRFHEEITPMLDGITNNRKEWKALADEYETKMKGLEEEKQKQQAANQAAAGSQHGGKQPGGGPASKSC
T1 sequence (P23439 2-850 limits assumed): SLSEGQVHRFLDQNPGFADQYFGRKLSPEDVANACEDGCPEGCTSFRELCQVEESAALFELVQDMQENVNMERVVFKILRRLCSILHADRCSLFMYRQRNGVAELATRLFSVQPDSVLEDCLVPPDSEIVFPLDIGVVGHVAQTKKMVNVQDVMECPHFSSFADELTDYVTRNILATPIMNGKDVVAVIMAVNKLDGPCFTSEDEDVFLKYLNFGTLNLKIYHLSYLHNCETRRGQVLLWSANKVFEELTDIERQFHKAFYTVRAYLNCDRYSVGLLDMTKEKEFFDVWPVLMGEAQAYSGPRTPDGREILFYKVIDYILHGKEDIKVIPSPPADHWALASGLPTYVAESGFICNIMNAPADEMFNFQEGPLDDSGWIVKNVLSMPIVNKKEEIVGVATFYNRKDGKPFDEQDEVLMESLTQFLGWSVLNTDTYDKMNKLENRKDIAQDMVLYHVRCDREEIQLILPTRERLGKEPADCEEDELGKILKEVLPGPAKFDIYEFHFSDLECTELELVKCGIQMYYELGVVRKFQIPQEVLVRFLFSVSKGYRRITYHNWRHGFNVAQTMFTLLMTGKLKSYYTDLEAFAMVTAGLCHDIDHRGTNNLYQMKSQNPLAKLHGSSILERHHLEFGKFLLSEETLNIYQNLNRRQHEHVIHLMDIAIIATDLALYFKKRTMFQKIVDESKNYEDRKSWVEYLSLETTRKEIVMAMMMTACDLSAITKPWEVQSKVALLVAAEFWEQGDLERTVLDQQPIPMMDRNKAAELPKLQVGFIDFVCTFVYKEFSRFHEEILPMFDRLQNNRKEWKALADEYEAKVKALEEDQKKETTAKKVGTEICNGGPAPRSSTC
The experiment in a line: PDE6 enzyme assay. It is filed as biochemical. The settings on record: from PDE inhibition data of Table 1.

The test system of a further series is bovine PDE1. The experiment in a line: PDE1 enzyme assay. It is filed as biochemical. The following applies: from PDE inhibition data of Table 1.
The mark [3] stands for this setting: 20 mg orally daily, number of patients.
Where [4] appears, read: responders (≥ 20% epidermal thickness reduction), 8 patients, Day 29.

Chain of human PDE2 (O00408 whole entry): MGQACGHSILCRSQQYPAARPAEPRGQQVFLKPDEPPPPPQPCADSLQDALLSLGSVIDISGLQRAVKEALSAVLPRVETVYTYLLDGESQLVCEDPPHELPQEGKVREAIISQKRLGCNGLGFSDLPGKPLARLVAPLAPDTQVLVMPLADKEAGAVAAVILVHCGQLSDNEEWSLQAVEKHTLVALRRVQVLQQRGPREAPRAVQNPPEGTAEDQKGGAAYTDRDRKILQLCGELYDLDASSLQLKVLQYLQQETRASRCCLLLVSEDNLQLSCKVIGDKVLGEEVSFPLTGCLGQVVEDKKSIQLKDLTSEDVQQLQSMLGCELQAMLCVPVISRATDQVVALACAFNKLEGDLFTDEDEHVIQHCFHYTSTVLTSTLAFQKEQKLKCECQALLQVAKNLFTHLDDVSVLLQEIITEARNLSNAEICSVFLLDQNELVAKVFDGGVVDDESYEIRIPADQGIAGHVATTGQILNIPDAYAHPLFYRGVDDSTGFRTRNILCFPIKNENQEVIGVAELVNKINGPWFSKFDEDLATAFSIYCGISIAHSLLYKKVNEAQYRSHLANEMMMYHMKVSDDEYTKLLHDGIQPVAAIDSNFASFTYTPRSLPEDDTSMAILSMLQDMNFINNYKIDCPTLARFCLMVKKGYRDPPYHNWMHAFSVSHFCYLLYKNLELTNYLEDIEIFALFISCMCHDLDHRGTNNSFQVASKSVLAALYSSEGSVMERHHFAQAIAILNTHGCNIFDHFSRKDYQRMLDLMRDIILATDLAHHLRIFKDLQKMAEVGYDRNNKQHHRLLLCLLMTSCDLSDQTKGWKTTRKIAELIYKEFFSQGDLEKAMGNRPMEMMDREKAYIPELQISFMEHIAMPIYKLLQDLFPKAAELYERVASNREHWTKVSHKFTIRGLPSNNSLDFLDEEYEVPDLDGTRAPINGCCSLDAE

With `CCOc1cc(C(CS(C)(=O)=O)N2C(=O)c3cccc(NC(C)=O)c3C2=O)ccc1OC` (single isomer, unassigned; (+)) [Compound A, (+)-2-[1-(3-ethoxy-4-methoxyphenyl)-2-methylsulfonylethyl]-4-acetylaminoisoindoline-1,3-dione], in series [1] (setting [3]), the “patients with abnormal HLA-DR that had normal HLA-DR at Day 29” value was “Two”, the “patients with abnormal ICAM-1 at baseline that had normal ICAM-1 at Day 29” value is on record as “Three”, the “patients with abnormal K16 at baseline that had normal K16 at Day 29” value is “one” and the “patients with abnormal fillagrin at baseline that had normal fillagrin at Day 29” value is on record as “three”. For the same molecule, the “safety (overall conclusion)” value in series [1] (20 mg p.o. QD for 29 days) is “safe”. In addition, in series [1] (Responder, signed change), the “Percentage Reduction of Key Inflammatory Markers at Day 29: CD11c, Dermis” value is listed as -18.50%; the “Percentage Reduction of Key Inflammatory Markers at Day 29: CD11c, Epidermis” value is on record as -40.16%; the “Percentage Reduction of Key Inflammatory Markers at Day 29: CD83+, Dermis” value is listed as -25.86%; the “Percentage Reduction of Key Inflammatory Markers at Day 29: CD83+, Epidermis” value is on record as -32.50%. For the same molecule, in series [1] (Responder, signed change), the “Percentage Reduction of Key Inflammatory Markers at Day 29: T-cells, Dermis” value is recorded as -28.79% and the “Percentage Reduction of Key Inflammatory Markers at Day 29: T-cells, Epidermis” value was -42.56%. Besides, in series [1] (setting [4]), the “decrease of dermal T-cells” value amounted to 28.79% and the “decrease of epidermal T-cells” value came out at 42.56%. Also, in series [1] (responders, Day 29), the “CD11c cells reduced in the dermis” value came out at 18.50%, the “CD11c cells reduced in the epidermis” value worked out at 40.16%, the “Mean reduction from baseline in dermal CD83+ cells” value was determined as 25.86% and the “Mean reduction from baseline in epidermal CD83+ cells” value stood at 32.50%. Moreover, the deaths entry in series [1] (treatment and follow-up phases) is recorded as “No deaths were reported”. The “PDE Specificity Ratio PDE4/PDE2” value on human PDE2 is more than 10000 fold. In series [2], the “PDE Specificity Ratio PDE4/PDE6” value was more than 40000 fold. Besides, the “PDE Specificity Ratio PDE4/PDE1” value in the series with bovine PDE1 is listed as more than 500 fold.
